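Cultured in 96-well plates, cells were exposed to test compound for 48 hours across five concentrations. The concentration for 50% growth inhibition is given as GI50. Definition used: TGI = concentration required for complete inhibition of growth.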
Experiments:
Assay in all cases: growth of human tumour cells (NCI), 48 h
[1] = tested on: TK-10 renal
[2] = tested on: SK-MEL-2 melanoma
[3] = tested on: NCI-H522 lung
[4] = tested on: SK-MEL-28 melanoma
[5] = tested on: IGROV1 ovarian
[6] = tested on: COLO 205 colon
[7] = tested on: HCT-15 colon
[8] = tested on: NCI/ADR-RES ovarian
[9] = tested on: NCI-H226 lung
[10] = tested on: OVCAR-3 ovarian

With NC(=S)N/N=C/c1nccc2ccccc12 the TGI [1] was greater than 100 µM, the TGI [2] was greater than 100 µM and the TGI [3] was 5.24 µM. For the same compound, the TGI [4] was greater than 100 µM, the TGI [5] was greater than 100 µM and the TGI [6] was greater than 100 µM. It also gave a TGI [7] greater than 100 µM.

c1ccc(N2N=C(c3cccc(Nc4ccncc4)c3)CC2c2ccc3c(c2)OCO3)cc1 (centres undefined) gave a GI50 [8] of 1.66 µM, a TGI [8] of 3.6 µM and a GI50 [9] of 2.07 µM. For the same compound, the TGI [9] was 5.05 µM, the GI50 [1] was 1.94 µM and the TGI [1] was 3.99 µM. For the same compound, the GI50 [2] was 2.02 µM, the TGI [2] was 4.01 µM and the GI50 [3] was 1.61 µM. It also gave a TGI [3] of 3.48 µM, a GI50 [4] of 1.66 µM and a TGI [4] of 3.14 µM. It also gave a GI50 [5] of 1.7 µM, a TGI [5] of 3.6 µM and a GI50 [6] of 1.8 µM. The TGI [6] was 3.84 µM, the GI50 [10] was 1.48 µM and the TGI [10] was 2.92 µM. It also gave a GI50 [7] of 1.49 µM and a TGI [7] of 3.38 µM.

CC[C@@H]1ON(C)[C@H]2CN(C)C(=O)[C@@H]12 was tested, and the TGI [8] was greater than 100 µM, the TGI [9] was greater than 100 µM and the TGI [1] was greater than 100 µM. It also gave a TGI [2] greater than 100 µM, a TGI [3] greater than 100 µM and a TGI [4] greater than 100 µM. The TGI [5] was greater than 100 µM, the TGI [6] was greater than 100 µM and the TGI [10] was greater than 100 µM. The TGI [7] was greater than 100 µM.

COc1nc2ccc(COc3ccc(C(=O)NC(CCC(=O)O)C(=O)O)cc3)cc2nc1OC (centres undefined) showed a TGI [9] greater than 10 µM, a TGI [1] greater than 10 µM and a TGI [2] greater than 10 µM. For the same compound, the TGI [3] was greater than 10 µM, the TGI [4] was greater than 10 µM and the TGI [5] was greater than 10 µM. The TGI [6] was greater than 10 µM, the TGI [10] was greater than 10 µM and the TGI [7] was greater than 10 µM.

Work on Cc1nc2c(c(=O)[nH]1)S/C(=C(/C#N)c1nc3ccccc3[nH]1)N2c1ccccc1 yielded a TGI [1] greater than 100 µM, a TGI [2] greater than 100 µM and a TGI [3] greater than 100 µM. For the same compound, the TGI [4] was greater than 100 µM, the TGI [5] was greater than 100 µM and the TGI [6] was greater than 100 µM. The TGI [10] was greater than 100 µM and the TGI [7] was greater than 100 µM.

In the case of CC(=O)N1N=C(c2ccc3ccccc3c2O)CC1c1cccs1 (centres undefined), the TGI [8] is reported as 39.5 µM, the TGI [9] is reported as greater than 100 µM and the TGI [1] is reported as greater than 100 µM. For the same compound, the TGI [2] was 74.3 µM, the TGI [3] was 75.1 µM and the TGI [4] was greater than 100 µM. The TGI [5] was greater than 100 µM, the TGI [6] was greater than 100 µM and the TGI [10] was greater than 100 µM. It also gave a TGI [7] greater than 100 µM.

In the case of COc1ccc2c(c1O)-c1cc(O)cc3c1[C@@H](C2)N(C)CC3, the TGI [8] is reported as 227 µM, the TGI [9] is reported as 108 µM and the TGI [2] is reported as 43.4 µM. It also gave a TGI [3] of 255 µM, a TGI [4] of 157 µM and a TGI [5] of 139 µM. It also gave a TGI [6] of 106 µM, a TGI [10] of 84.2 µM and a TGI [7] of 140 µM.

Compound O=C1C(Cl)N(c2cccc(Cl)c2)C1c1c[nH]c2ccccc12 (centres undefined) has a TGI [1] greater than 100 µM, a TGI [2] greater than 100 µM and a TGI [3] greater than 100 µM. It also gave a TGI [4] greater than 100 µM, a TGI [5] greater than 100 µM and a TGI [6] greater than 100 µM. It also gave a TGI [10] greater than 100 µM.

In the case of COc1ccc(-c2csc(=Nc3ccccc3)n2CCCN(C)C)cc1, the TGI [8] is reported as 54.3 µM, the TGI [9] is reported as 38.1 µM and the TGI [1] is reported as 29.8 µM. For the same compound, the TGI [2] was 37.7 µM, the TGI [4] was 58.1 µM and the TGI [10] was 37.5 µM. The TGI [7] was greater than 100 µM.

COc1cc(C2S/C(=C/c3ccccc3)C(=O)N2c2ccc(NC(C)=O)cc2)cc(OC)c1OC (centres undefined) gave a TGI [8] of 76.2 µM, a TGI [1] greater than 100 µM and a TGI [2] of 20.3 µM. It also gave a TGI [3] of 26.6 µM, a TGI [4] greater than 100 µM and a TGI [6] of 30.3 µM. It also gave a TGI [7] of 46.7 µM.

From PubChem BioAssay (NCI)
